According to US6455562B1, “Cyclic AMP-specific phosphodiesterase inhibitors” (Icos Corporation, priority 1999, dated 2002):
Where two headings read alike, the source gives them in different places.

Assays:
[1] = in vivo; cited from earlier work
recombinant human PDE4 [2] = settings: reported, prior art; read-out: reported 50% Inhibitory Concentration (IC50) with respect to inhibiting recombinant human PDE4; cited from earlier work
recombinant human PDE4 [3] = tested on: T1, recombinant human PDE4; assay: PDE4 inhibition, IC50 using recombinant human PDE4 (charcoal separation PDE assay); type: biochemical; settings: read-out: IC50 value versus human recombinant PDE4
T1 construct: other: recombinant human PDE4
Procedure: The compounds of structural formula (II) were tested for an ability to inhibit PDE4. The ability of a compound to inhibit PDE4 activity is related to the IC50 value for the compound, i.e., the concentration of inhibitor required for 50% inhibition of enzyme activity. The IC50 value for compounds of structural formula (II) were determined using recombinant human PDE4. […]
Phosphodiesterase activity of the preparations was determined as follows. […] The [32P]5′-AMP or [32P]5′-GMP then was quantitatively converted to free [32P]phosphate and unlabeled adenosine or guanosine by the action of snake venom 5′-nucleotidase. […] PDE enzyme was present in quantities that yield <30% total hydrolysis of substrate (linear assay conditions). […] The reaction was stopped by addition of 200 μL of activated charcoal (25 mg/mL suspension in 0.1M NaH2PO4, pH 4) After centrifugation (750 X g for 3 minutes) to sediment the charcoal, a sample of the supernatant was taken for radioactivity determination in a scintillation counter and the PDE activity was calculated.

Row | Structure (SMILES) | IC50 (recombinant human PDE4 [2]) | further results
1 | COc1ccc([C@@H]2CNC(=O)C2)cc1OC1CCCC1 (single isomer, unassigned) [(−)-enantiomer of rolipram, R-rolipram] | – | emetic potential relative to the (+)-enantiomer (S-rolipram) [1]: about ten-fold more emetic
2 | COc1ccc(C2CNC(=O)C2)cc1OC1CCCC1 (stereo not shown) [Rolipram] | ~200 nM | –
3 | COC(=O)N1CC(c2ccc(OC)c(OC3CCCC3)c2)C(C)(C(C)=O)C1 (stereo not shown) [formula (I)] | ~2 nM | –
4 | COc1ccc([C@@H]2CN(Cc3ccccc3)C[C@@]2(C)c2nn[nH]n2)cc1OC1CCCC1 [Example 1] | – | IC50 (recombinant human PDE4 [3]): 7900 nM
